In brackets after ≈: the same amount, converted by molar mass.
What was measured:
Type in all cases: functional
[1] = tested on: Mycobacterium tuberculosis; assay: Antimycobacterial activity against Streptomycin-resistant Mycobacterium tuberculosis H37Rv ATCC 35820 assessed as inhibition of bacterial growth incubated for 48 hrs by broth microdilution assay
[2] = tested on: Mycobacterium tuberculosis; assay: Antimycobacterial activity against ethambutol-resistant Mycobacterium tuberculosis H37Rv ATCC 35837 assessed as inhibition of bacterial growth incubated for 48 hrs by broth microdilution assay
[3] = tested on: Mycobacterium tuberculosis; assay: Antimycobacterial activity against rifampicin-resistant Mycobacterium tuberculosis H37Rv ATCC 35838 assessed as inhibition of bacterial growth incubated for 48 hrs by broth microdilution assay
[4] = tested on: Mycobacterium tuberculosis; assay: Antimycobacterial activity against isoniazid-resistant Mycobacterium tuberculosis H37Rv ATCC 35822 assessed as inhibition of bacterial growth incubated for 48 hrs by broth microdilution assay

COC(=O)c1cc(-c2cccc(NC(=O)c3ccc(/C=C/C(=O)c4ccccc4C)cc3)c2)on1
MIC [1]: 2 µg/mL (≈ 4.29 µM) | MIC [2]: 0.12 µg/mL (≈ 0.257 µM) | MIC [3]: 0.25 µg/mL (≈ 0.536 µM) | MIC [4]: 1 µg/mL (≈ 2.14 µM)

CCCOc1ccc(C(=O)/C=C/c2ccc(C(=O)Nc3cccc(-c4cc(C(=O)OC)no4)c3)cc2)cc1
MIC [1]: 2 µg/mL (≈ 3.92 µM) | MIC [2]: 0.06 µg/mL (≈ 0.118 µM) | MIC [3]: 0.03 µg/mL (≈ 0.0588 µM) | MIC [4]: 0.12 µg/mL (≈ 0.235 µM)

COC(=O)c1cc(-c2cccc(NC(=O)c3ccc(/C=C/C(=O)c4ccc(CC(C)C)cc4)cc3)c2)on1
MIC [1]: 1 µg/mL (≈ 1.97 µM) | MIC [2]: > 64 µg/mL | MIC [3]: 16 µg/mL (≈ 31.5 µM) | MIC [4]: > 64 µg/mL

COC(=O)c1cc(-c2cccc(NC(=O)c3ccc(/C=C/C(=O)c4ccc(F)cc4F)cc3)c2)on1
MIC [1]: 2 µg/mL (≈ 4.09 µM) | MIC [2]: 0.12 µg/mL (≈ 0.246 µM) | MIC [3]: 0.25 µg/mL (≈ 0.512 µM) | MIC [4]: 1 µg/mL (≈ 2.05 µM)

COC(=O)c1cc(-c2cccc(NC(=O)c3ccc(/C=C/C(=O)c4ccc(N5CCOCC5)cc4)cc3)c2)on1
MIC [1]: 2 µg/mL (≈ 3.72 µM) | MIC [2]: 0.12 µg/mL (≈ 0.223 µM) | MIC [3]: 0.12 µg/mL (≈ 0.223 µM) | MIC [4]: 0.12 µg/mL (≈ 0.223 µM)

COC(=O)c1cc(-c2cccc(NC(=O)c3ccc(/C=C/C(=O)c4ccc(C)cc4)cc3)c2)on1
MIC [1]: 0.25 µg/mL (≈ 0.536 µM) | MIC [2]: > 64 µg/mL | MIC [3]: > 64 µg/mL | MIC [4]: 0.5 µg/mL (≈ 1.07 µM)

COC(=O)c1cc(-c2cccc(NC(=O)c3ccc(/C=C/C(=O)c4ccc(Cl)cc4)cc3)c2)on1
MIC [1]: 2 µg/mL (≈ 4.11 µM) | MIC [2]: > 64 µg/mL | MIC [3]: 2 µg/mL (≈ 4.11 µM) | MIC [4]: > 64 µg/mL

CCOC(=O)c1cc(-c2cccc(NC(=O)c3ccc(/C=C/C(=O)c4ccc(Cl)cc4)cc3)c2)on1
MIC [1]: 64 µg/mL (≈ 128 µM) | MIC [2]: 4 µg/mL (≈ 7.99 µM) | MIC [3]: 0.5 µg/mL (≈ 0.998 µM) | MIC [4]: 32 µg/mL (≈ 63.9 µM)

COC(=O)c1cc(-c2cccc(NC(=O)c3ccc(/C=C/C(=O)c4ccc(OC)cc4OC)cc3)c2)on1
MIC [1]: 2 µg/mL (≈ 3.9 µM) | MIC [2]: 0.25 µg/mL (≈ 0.488 µM) | MIC [3]: 0.25 µg/mL (≈ 0.488 µM) | MIC [4]: 2 µg/mL (≈ 3.9 µM)

COC(=O)c1cc(-c2cccc(NC(=O)c3ccc(/C=C/C(=O)c4ccccc4Cl)cc3)c2)on1
MIC [1]: 0.5 µg/mL (≈ 1.03 µM) | MIC [2]: 0.25 µg/mL (≈ 0.513 µM) | MIC [3]: 0.25 µg/mL (≈ 0.513 µM) | MIC [4]: 1 µg/mL (≈ 2.05 µM)

COC(=O)c1cc(-c2cccc(NC(=O)c3ccc(/C=C/C(=O)c4cccc(Cl)c4)cc3)c2)on1
MIC [1]: 0.5 µg/mL (≈ 1.03 µM) | MIC [2]: 0.12 µg/mL (≈ 0.246 µM) | MIC [3]: 0.5 µg/mL (≈ 1.03 µM) | MIC [4]: 0.5 µg/mL (≈ 1.03 µM)

COC(=O)c1cc(-c2cccc(NC(=O)c3ccc(/C=C/C(=O)c4ccc(Cl)cc4Cl)cc3)c2)on1
MIC [1]: 1 µg/mL (≈ 1.92 µM) | MIC [2]: > 64 µg/mL | MIC [3]: 64 µg/mL (≈ 123 µM) | MIC [4]: > 64 µg/mL

CCOc1ccc(C(=O)/C=C/c2ccc(C(=O)Nc3cccc(-c4cc(C(=O)OC)no4)c3)cc2)cc1
MIC [1]: 0.5 µg/mL (≈ 1.01 µM) | MIC [2]: 0.06 µg/mL (≈ 0.121 µM) | MIC [3]: 0.03 µg/mL (≈ 0.0604 µM) | MIC [4]: 0.5 µg/mL (≈ 1.01 µM)

COC(=O)c1cc(-c2ccc(NC(=O)c3ccc(/C=C/C(=O)c4ccc(Cl)cc4)cc3)cc2)on1
MIC [1]: 8 µg/mL (≈ 16.4 µM) | MIC [2]: 0.25 µg/mL (≈ 0.513 µM) | MIC [3]: 0.5 µg/mL (≈ 1.03 µM) | MIC [4]: 0.5 µg/mL (≈ 1.03 µM)

CCOC(=O)c1cc(/C=C/c2c(Cl)cncc2Cl)on1
MIC [1]: 8 µg/mL (≈ 25.5 µM) | MIC [2]: 8 µg/mL (≈ 25.5 µM) | MIC [3]: 1 µg/mL (≈ 3.19 µM) | MIC [4]: 4 µg/mL (≈ 12.8 µM)

CC[C@@H](CO)NCCN[C@@H](CC)CO [ETHAMBUTOL]
MIC [1]: 1 µg/mL (≈ 4.89 µM) | MIC [2]: 32 µg/mL (≈ 157 µM) | MIC [3]: 1 µg/mL (≈ 4.89 µM) | MIC [4]: 4 µg/mL (≈ 19.6 µM)

NNC(=O)c1ccncc1 [ISONIAZID]
MIC [1]: 0.03 µg/mL (≈ 0.219 µM) | MIC [2]: 0.03 µg/mL (≈ 0.219 µM) | MIC [3]: 0.03 µg/mL (≈ 0.219 µM) | MIC [4]: > 64 µg/mL

CO[C@H]1/C=C/O[C@@]2(C)Oc3c(C)c(O)c4c(O)c(c(/C=N/N5CCN(C)CC5)c(O)c4c3C2=O)NC(=O)/C(C)=C\C=C\[C@H](C)[C@H](O)[C@@H](C)[C@@H](O)[C@@H](C)[C@H](OC(C)=O)[C@@H]1C [RIFAMPIN]
MIC [1]: 0.03 µg/mL (≈ 0.0365 µM) | MIC [2]: 0.03 µg/mL (≈ 0.0365 µM) | MIC [3]: 64 µg/mL (≈ 77.8 µM) | MIC [4]: 0.03 µg/mL (≈ 0.0365 µM)

CN[C@@H]1[C@H](O[C@H]2[C@H](O[C@H]3[C@H](O)[C@@H](O)[C@H](N=C(N)N)[C@@H](O)[C@@H]3N=C(N)N)O[C@@H](C)[C@]2(O)C=O)O[C@@H](CO)[C@H](O)[C@H]1O [STREPTOMYCIN]
MIC [1]: > 64 µg/mL | MIC [2]: 2 µg/mL (≈ 3.44 µM) | MIC [3]: 1 µg/mL (≈ 1.72 µM) | MIC [4]: 1 µg/mL (≈ 1.72 µM)

Source: ChEMBL document CHEMBL4823271, “Synthesis and structure-activity relationship of new chalcone linked 5-phenyl-3-isoxazolecarboxylic acid methyl esters potentially active against drug resistant Mycobacterium tuberculosis” (Eur J Med Chem, 2021)
